Patent publication US7544666B2, “NAP derivatives” (Industrial Technology Research Institute, priority 2005, dated 2009)

Columns and labels:
PC12 cells = test: Neural protection in H2O2/PC12 cell system (MTT); assay type: cell-based; settings: 500 μM H2O2-induced PC12 cytotoxicity
Procedure: The neural protection of NAP and the NAP derivatives prepared in EXAMPLE 1 were measured by H2O2/PC12 cell system. PC12 cells (4×10^4 cells) were seeded into a 96-well plate and incubated for 24 hours. NAP and the NAP derivatives prepared in EXAMPLE 1 at different concentration were added into the plate and incubated at 37° C. for 4 hours. Hydrogen peroxide with a concentration of 500 μM was then added to induce cytotoxicity. After 24 hours, supernatants were discarded and MTT [3-(4,5-dimethylthiazol-2-yl)-2,5-diphenyltetrazolium bromide] solution (0.5 mg/ml) was added for 4-hour reaction at 37° C. One hundred and fifty μl of DMSO was added to solve formazan product. Absorbance was measured by Microplate Reader at 570 nm, and cell viability was calculated. […] FIGS. 3 to 8 show the cell protection of the NAP derivatives from H2O2-induced PC12 cytotoxicity.

[1] = tested on: scopolamine-induced amnesia rats; test: Morris water maze in scopolamine-induced amnesia rats; assay type: in vivo, rat; settings: 0.25 mg/kg subcutaneous, 5 min after scopolamine 1 mg/kg i.p.; FIG. 11
Procedure: Scopolamine-induced amnesia […] were used in combination of Morris water maze, a memory and behavior analysis system, to assess the in vivo effects of the NAP derivative BMEC-NAP0701 and NAP.
Sprague-Dawley male rats with body weight of 220-250 g obtained from the National Laboratory Animal Center, Taiwan, were caged in an air-conditioned housing with a temperature of 23±1° C. and kept on an alternating 12-hour light and 12-hour dark schedule with sufficient feed and water. […]
Morris Water Maze was performed with a water maze device containing a stainless pool with a size of 160 cm in diameter, 50 cm in height, and 15 mm in thickness of the wall and a platform with a size of 11 cm in diameter, and 22 cm in height. […] The swimming time and track were recorded by VEDEOMEX-V video tracing system, video recorder, and monitor (Columbus Instruments) and analyzed by Water Maze Program (Columbus Instruments). […]
Late of the third day: Two to four hours after the third day training, the platform was removed from the pool. The trained rats were separately sent to quadrant I and the swimming track was recorded for 60 sec. The time spent in finding the original platform was also recorded. […]
Early of the fifth day: The platform was placed in the quadrant II and submerged beneath water level about 1 cm. The rats were separately sent to quadrant I and the time spent in finding the platform was recorded. […]

SMILES: CC[C@H](C)[C@H](NC(=O)[C@H](CO)NC(=O)[C@@H](NC(=O)[C@@H]1CCCN1C(=O)[C@H](C)NC(=O)[C@@H](N)CC(N)=O)C(C)C)C(=O)N1CCC[C@H]1C(=O)N[C@@H](CCC(N)=O)C(=O)O [BMEC-NAP, H-NAPVSIPQ-OH, reference compound]
- concentration level at which cell viability was increased (PC12 cells): picomolar (i.e. 10^−12) level
- concentration level of cell protection effect (PC12 cells; 4 h pre-incubation): femtomolar (i.e. 10^−15) level
- memory improving effect (time spent in finding the platform vs scopolamine-induced rats) [1]: memory improving effect in vivo
